The record followed here is patent US20250171462A1 (NICO Therapeutics, Inc., priority 2022, published 2025).

Where two headings read alike, the source gives them in different places.

The target in the assay is T1, full-length SARM1 (FL-SARM1) (Homo sapiens, UniProt Q6SZW1).
T1 sequence (Q6SZW1 28-724): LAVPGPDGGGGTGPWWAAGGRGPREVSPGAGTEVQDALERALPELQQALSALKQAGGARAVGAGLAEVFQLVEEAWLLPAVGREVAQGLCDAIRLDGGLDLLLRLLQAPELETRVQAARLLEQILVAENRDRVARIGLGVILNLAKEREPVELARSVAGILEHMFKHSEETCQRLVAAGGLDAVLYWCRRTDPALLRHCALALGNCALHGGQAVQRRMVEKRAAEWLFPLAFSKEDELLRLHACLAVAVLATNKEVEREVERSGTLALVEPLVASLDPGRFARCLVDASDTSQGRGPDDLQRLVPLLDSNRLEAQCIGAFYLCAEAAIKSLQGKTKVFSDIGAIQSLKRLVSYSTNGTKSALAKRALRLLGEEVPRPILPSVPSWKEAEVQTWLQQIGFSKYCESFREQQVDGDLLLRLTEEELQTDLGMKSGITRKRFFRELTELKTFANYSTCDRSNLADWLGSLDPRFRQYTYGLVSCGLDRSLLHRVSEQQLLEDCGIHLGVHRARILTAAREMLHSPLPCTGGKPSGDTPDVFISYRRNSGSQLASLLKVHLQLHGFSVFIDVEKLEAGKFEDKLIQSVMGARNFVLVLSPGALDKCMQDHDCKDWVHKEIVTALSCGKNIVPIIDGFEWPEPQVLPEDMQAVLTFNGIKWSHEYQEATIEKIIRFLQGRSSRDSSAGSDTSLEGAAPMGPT
In words: FL-SARM1 cellular lysate assay (NAD/NADH-Glo detection of remaining NAD+, NMN-activated).

[1] abbreviates: Activity (μM) (IC50), 11 point curve.
Where [2] appears, read: read-out: Activity (IC50 class), 11 point curve.
The mark [3] stands for this setting: Activity (IC50 class), 11 point curve.

As a reminder, the IC50 is the concentration that inhibits the measured activity by half.

Experimental: Preparation of full-length SARM1 (FL-SARM1) lysate: HEK293T cells (ATCC: CRL-3216) were grown on 150 mm TC-treated dishes to 80-90% confluency in complete DMEM (DMEM (Thermo Fisher: 11965175) supplemented with 10% HI—FBS (VWR: 10802-772), 1× Pen/Strep (Thermo Fisher: 15140122), 1×NEAA (Thermo Fisher: 1140050), 1× glutamax (Thermo Fisher: 35050061), and 1 mM sodium pyruvate (Thermo Fisher: 11360070)) at 37° C. and 5% CO2. One hour prior to transfection, the media was replaced with fresh, 37° C. complete DMEM (20 mL per one 150 mm dish) supplemented with additional 10 mM glucose (Alfa Aesar AAJ60067EQE). Per one 150 mm dish, 30 μg FL-SARM1 (SEQ. ID. 1; cloned in-house) plasmid was dissolved in 1 mL DMEM at ambient temperature and were mixed by inverting the tube 8-10 times. 90 μL of GenJet™ in vitro DNA transfection reagent (Ver2) was dissolved in 1 mL DMEM at ambient temperature and were mixed by inverting the tube 8-10 times. The plasmid and transfection agent solutions were combined, mixed by 8-10 inversions and incubated for 10 minutes at ambient temperature. 2 mL of this transfection mixture was added to each dish containing HEK293T cells as prepared above followed by a gentle mixing of 4-5 horizontal rotations. The dishes were incubated at 37° C. and 5% CO2 for 24 h. The dishes were removed from the incubator, the medium was aspirated and the cells were scraped off using cell scrapers in ice-cold 1×PBS (5 mL/dish, Thermo Fisher Scientific 10010023). The collected cells were centrifuged at 300 g for 5 minutes at 4° C. The supernatant was aspirated and the pellet was frozen at −80° C. until needed. The cell pellet from 30 dishes was dissolved in 30 mL 1×PBS supplemented with 4 tablets of Complete, Mini EDTA-free protease inhibitor cocktail at 4° C. This mixture was sonicated on ice for 10 minutes at 50% amplitude with a 1 second on/1 second off interval using a Model 120 sonicator (Thermo Fisher Scientific, FB120110). The lysate was centrifuged at 16000 g for 10 minutes at 4° C.
To a white 384-well Proxiplate (PerkinElmer, PE-6008280) was added 50 nL/well of a DMSO solution containing test compounds followed by 7.5 μL/well of a 0.067 mg/mL solution of SARMi cellular lysate in reaction buffer (DPBS containing CHAPSO (0.1%) and fatty acid free BSA (0.032%)). The plate was centrifuged for 1 minute at 1000 RPM and then placed in an incubator at 23° C. for 15 minutes. To the wells were added 2.5 μL/well of a solution containing 40 M NAD^+ and 4 mM nicotinamide mononucleotide (NMN) in reaction buffer. The plate was centrifuged for 1 min at 1000 RPM, the plate was sealed and placed in an incubator at 23° C. for 3.5 hours before adding 3.5 μL/well of NAD/NADH-Glo™ solution (preparation as described by Promega using the extended detection protocol). The plate was centrifuged for 1 minute at 1000 RPM and then incubated at 23° C. for 20 minutes. 1 μL/well of a 3.625 mM solution of menadione in DMSO was added and the plate was centrifuged for 1 minute at 1000 RPM. Relative light units (RLU) were recorded using an Envision plate reader at a height of 6.5 mm.
IC50 values were calculated from an 11 point curve using ½ log dilutions using a four-parameter logistic regression curve fit.

As for `Cc1ccc(NC(=O)N2C3C[C@@H]2CC[C@H]3C)cc1-c1ccccn1` (single isomer, unassigned) [Example 48, trans-2-methyl-N-(4-methyl-3-(pyridin-2-yl)phenyl)-6-azabicyclo[3.1.1]heptane-6-carboxamide], the IC50 is 0.1 µM under setting [1] and 0.0001 to 1 µM under setting [2].

With `Cc1ccc(NC(=O)C2CC3CC[C@H]2C3)cc1-c1ccccn1` (single isomer, unassigned) [Example 139, cis-N-(4-methyl-3-pyridin-2-ylphenyl)bicyclo[2.2.1]heptane-2-carboxamide], the IC50 by setting is: under setting [1], 0.2 µM; under setting [2], 0.0001 to 1 µM.

Consider `Cc1ccc(NC(=O)N2C3CCCC2C3)cc1-c1ncccn1` [Example 52, N-(4-methyl-3-(pyrimidin-2-yl)phenyl)-6-azabicyclo[3.1.1]heptane-6-carboxamide], for which the IC50 runs as follows: under setting [1], 0.5 µM; under setting [2], 0.0001 to 1 µM.

`Cc1ccc(NC(=O)[C@H]2CC[C@@H](C)CN2c2ncccn2)cc1-c1ncccn1` (racemic) [Example 327]: the IC50 reads like this: under setting [1], 0.5 µM; under setting [2], 0.0001 to 1 µM.

For `Cc1cnc(-c2cc(NC(=O)N3C4CCCC3C4)ccc2C)nn1` [Example 180, N-(4-methyl-3-(6-methyl-1,2,4-triazin-3-yl)phenyl)-6-azabicyclo[3.1.1]heptane-6-carboxamide], the IC50 by setting is: under setting [1], 0.9 µM; under setting [2], 0.0001 to 1 µM.

With `Cc1ccc(NC(=O)N(C)C(c2ncccn2)C2CCC2)cc1-c1ncc(F)cn1` (racemic) [Example 214, 1-(cyclobutyl(pyrimidin-2-yl)methyl)-3-(3-(5-fluoropyrimidin-2-yl)-4-methylphenyl)-1-methylurea], the IC50 is 1 to 10 µM under setting [3] and 3.9 µM under setting [1].

`COC(C)[C@@]12CC(C[C@@H](C)C1)N2C(=O)Nc1ccc(C(F)(F)F)c(-c2nccnn2)c1` (single isomer, unassigned) [Example 211, cis-N-(3-(1,2,4-triazin-3-yl)-4-(trifluoromethyl)phenyl)-1-(1-methoxyethyl)-3-methyl-6-azabicyclo[3.1.1]heptane-6-carboxamide]: the IC50 runs as follows: under setting [1], 0.004 µM; under setting [2], 0.0001 to 1 µM.

On to `Cc1ccc(NC(=O)N2C[C@@H]3CCCC[C@@H]32)cc1-c1ncc(F)cn1` (racemic) [Example 226, N-[3-(5-fluoropyrimidin-2-yl)-4-methylphenyl]-7-azabicyclo[4.2.0]octane-7-carboxamide], for which the IC50 runs as follows: under setting [3], 1 to 10 µM; under setting [1], 1.5 µM.

Turning to `Cc1ccc(NC(=O)C2COC(C)(C)CN2c2ncccn2)cc1-c1ncccn1` (single isomer, unassigned) [Example 208, 6,6-dimethyl-N-(4-methyl-3-(pyrimidin-2-yl)phenyl)-4-(pyrimidin-2-yl)morpholine-3-carboxamide], the IC50 was 1 to 10 µM under setting [3] and 3.3 µM under setting [1].
